Drawing on patent US20240246908A1 (ORION CORPORATION, priority 2021, published 2024), this text covers IC50 for 35 molecules.

The test relates to YAP-TEAD. Kind of test: TEAD inhibition, Hippo Pathway TEAD Reporter MCF-7 luciferase assay. It counts as cell-based. The settings on record: Homo sapiens, MCF7, 24 h, Hippo Pathway TEAD Reporter MCF-7 cells, luciferase activity after 24 h; read-out: IC50 of the test compounds on YAP-TEAD inhibition (Group). In short, it runs like this: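 IC50 derived from ONE-Glo luciferase luminescence after 24 h compound exposure (11 concentrations in quadruplicate, 0.1% DMSO control). Reporter: MCF-7 line expressing firefly luciferase under TEAD elements, constitutively activated by nuclear YAP1.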

Each structure is given as a SMILES string. Where only a bound is given, the exact number is not on record here.

Consider `COc1ccc(Oc2ccc(C(F)(F)F)cc2)cc1NC(=O)C1CNCC(=O)N1C` (centres unmarked) [Compound 374, N-(2-Methoxy-5-(4-(trifluoromethyl)phenoxy)phenyl)-1-methyl-6-oxopiperazine-2-carboxamide], for which the IC50 lay in the range of 301 to 2000 nM. On to `CCN1C(=O)CC[C@@H]1C(=O)Nc1cc(Oc2ccc(C(F)(F)F)cn2)cc2c1OCC2` [Compound 170, (R)-1-Ethyl-5-oxo-N-(5-((5-(trifluoromethyl)pyridin-2-yl)oxy)-2,3-dihydro-benzofuran-7-yl)pyrrolidine-2-carboxamide], for which the IC50 was below 50 nM. On to `COc1ccc(Oc2ccc(C(F)(F)F)cc2)cc1NC(=O)[C@@H]1CCC(=O)NC1` [Compound 120, (R)—N-(2-Methoxy-5-(4-(trifluoromethyl)phenoxy)phenyl)-6-oxopiperidine-3-carboxamide], for which the IC50 lay in the range of 301 to 2000 nM. Next, `COc1ccc(NC(=O)C2CCC(=O)N2C)cc1Cc1ccc(C(F)(F)F)cc1` (centres unmarked) [Compound 387, N-(4-Methoxy-3-(4-(trifluoromethyl)benzyl)phenyl)-1-methyl-5-oxo-pyrrolidine-2-carboxamide]: 301 to 2000 nM; `COc1ccc(NC(=O)[C@@H]2CCC(=O)N2C)cc1O[C@H]1CC[C@@H](C(F)(F)F)CC1` [Compound 272, (R)—N-(4-Methoxy-3-(((1s,4S)-4-(trifluoromethyl)cyclohexyl)oxy)phenyl)-1-methyl-5-oxopyrrolidine-2-carboxamide]: 301 to 2000 nM.

As to `COc1ccc(Oc2ccc(F)c(F)c2)cc1NC(=O)[C@H]1CCC(=O)N1C` [Compound 93, (R)—N-(5-(3,4-Difluorophenoxy)-2-methoxyphenyl)-1-methyl-5-oxopyrrolidine-2-carboxamide], the IC50 is below 50 nM. Under `COc1ccc(Oc2ccc(C(F)(F)F)cc2)cc1NC(=O)[C@H]1CCC(=O)N1C` [Compound 69, (R)—N-(2-Methoxy-5-(4-(trifluoromethyl)phenoxy)phenyl)-1-methyl-5-oxo-pyrrolidine-2-carboxamide] stands below 50 nM. Next, `COc1cc(NC(=O)C2CCC(=O)N2C)cc(Oc2cccc(C(F)(F)F)c2)c1` (centres unmarked) [Compound 273, N-(3-Methoxy-5-(3-(trifluoromethyl)phenoxy)phenyl)-1-methyl-5-oxo-pyrrolidine-2-carboxamide]: 50 to 300 nM. Next, `O=C1CCC(C(=O)Nc2cc(Oc3ccc(C(F)(F)F)cc3)ccc2F)N1` (centres unmarked) [Compound 76, N-(2-Fluoro-5-(4-(trifluoromethyl)phenoxy)phenyl)-5-oxopyrrolidine-2-carboxamide]: below 50 nM; `COc1ccc(Sc2ccc(F)c(F)c2)cc1NC(=O)C1CCC(=O)N1C` (centres unmarked) [Compound 297, N-(5-((3,4-Difluorophenyl)thio)-2-methoxyphenyl)-1-methyl-5-oxopyrrolidine-2-carboxamide]: below 50 nM. `CN1C(=O)NC[C@H]1C(=O)Nc1cc(Oc2ccc(C(F)(F)F)cc2)ccc1F` [Compound 365, (S)—N-(2-Fluoro-5-(4-(trifluoromethyl)phenoxy)phenyl)-3-methyl-2-oxo-imidazolidine-4-carboxamide]: the half-inhibitory concentration (IC50) was below 50 nM. Under `O=C(Nc1cc(Oc2ccc(C(F)(F)F)cn2)cc2c1OCC2)[C@@H]1CCC(=O)N1C1CC1` [Compound 165, (S)-1-Cyclopropyl-5-oxo-N-(5-((5-(trifluoromethyl)pyridin-2-yl)oxy)-2,3-dihydrobenzofuran-7-yl)pyrrolidine-2-carboxamide] stands below 50 nM; under `CN1C(=O)CCC1C(=O)Nc1cc(COc2ccc(F)c(F)c2)cc2c1OCC2` (centres unmarked) [Compound 242, N-(5-((3,4-Difluorophenoxy)methyl)-2,3-dihydrobenzofuran-7-yl)-1-methyl-5-oxopyrrolidine-2-carboxamide], 50 to 300 nM.

Take `COc1ccc(OCC2CC(F)(F)C2)cc1NC(=O)C1CCC(=O)N1C` (centres unmarked) [Compound 302, N-(5-((3,3-Difluorocyclobutyl)methoxy)-2-methoxyphenyl)-1-methyl-5-oxopyrrolidine-2-carboxamide]: the concentration for half-maximal inhibition (IC50) fell in the range of 301 to 2000 nM.

For the molecule `CN1C(=O)CC[C@H]1C(=O)Nc1cc(O[C@H]2CC[C@@H](C(F)(F)F)CC2)cc2c1OCC2` [Compound 107, (S)-1-Methyl-5-oxo-N-(5-(((cis)-4-(trifluoromethyl)cyclohexyl)oxy)-2,3-dihydrobenzofuran-7-yl)pyrrolidine-2-carboxamide], the IC50 is below 50 nM. As for `COc1ccc(Oc2ccc(C(F)(F)F)cc2)cc1N(C)C(=O)[C@@H]1CCC(=O)N1C` [Compound 417, (S)—N-(2-Methoxy-5-(4-(trifluoromethyl)phenoxy)phenyl)-N,1-dimethyl-5-oxopyrrolidine-2-carboxamide], the IC50 is 50 to 300 nM. Under `COc1ccc(Oc2ccc(C(F)(F)F)cc2)cc1NC(=O)c1nnn[nH]1` [Compound 392, N-(2-Methoxy-5-(4-(trifluoromethyl)phenoxy)phenyl)-1H-tetrazole-5-carboxamide] stands 301 to 2000 nM. As for `CN1C(=O)CCC1C(=O)Nc1cc(COc2cccc(F)c2)cc2ccoc12` (centres unmarked) [Compound 249, N-(5-((3-Fluorophenoxy)methyl)benzofuran-7-yl)-1-methyl-5-oxopyrrolidine-2-carboxamide], the concentration for half-maximal inhibition (IC50) is 50 to 300 nM.

`COCC(=O)N1CCC[C@@H]1C(=O)Nc1cc(Oc2ccc(C(F)(F)F)cc2)ccc1OC` [Compound 347, (R)—N-(2-Methoxy-5-(4-(trifluoromethyl)phenoxy)phenyl)-1-(2-methoxyacetyl)-pyrrolidine-2-carboxamide]: the IC50 is 301 to 2000 nM.

With `CNC(CCC(=O)O)C(=O)Nc1cc(Oc2ccc(C(F)(F)F)cc2)ccc1OC` (centres unmarked) [Compound 375], the IC50 was below 50 nM. Under `CN1C[C@@H](C(=O)Nc2cc(Oc3ccc(C(F)(F)F)cn3)cc3c2OCC3)N(C)C1=O` [Compound 364, (S)-1,3-Dimethyl-2-oxo-N-(5-((5-(trifluoromethyl)pyridin-2-yl)oxy)-2,3-dihydrobenzofuran-7-yl)imidazolidine-4-carboxamide] stands 50 to 300 nM.

Regarding `CN1C(=O)NCC1C(=O)Nc1cc(Oc2ccc(C(F)(F)F)cn2)cc2c1OCC2` (centres unmarked) [Compound 159, 3-Methyl-2-oxo-N-(5-((5-(trifluoromethyl)pyridin-2-yl)oxy)-2,3-dihydrobenzo-furan-7-yl)imidazolidine-4-carboxamide], the IC50 was below 50 nM. Turning to `CN1C(=O)CCC1C(=O)Nc1cc(Oc2ccc(F)c(F)c2)cc2c1OCCO2` (centres unmarked) [Compound 240, N-(7-(3,4-Difluorophenoxy)-2,3-dihydrobenzo[b][1,4]dioxin-5-yl)-1-methyl-5-oxopyrrolidine-2-carboxamide], the half-inhibitory concentration (IC50) is below 50 nM. On to `COc1ccc(Oc2cccc(F)c2)cc1NC(=O)C1CCC(=O)N1C(C)=O` (centres unmarked) [Compound 2, 1-Acetyl-N-(5-(3-fluorophenoxy)-2-methoxyphenyl)-5-oxopyrrolidine-2-carboxamide], for which the IC50 lay within 301 to 2000 nM. Under `COc1ccc(Oc2ccc(F)c(Cl)c2)cc1NC(=O)C1CCC(=O)N1C` (centres unmarked) [Compound 223, N-(5-(3-Chloro-4-fluorophenoxy)-2-methoxyphenyl)-1-methyl-5-oxo-pyrrolidine-2-carboxamide] stands below 50 nM; under `CN1C(=O)NCC1C(=O)Nc1cc(Oc2ccc(C(F)(F)F)cn2)cc2c1OCCC2` (centres unmarked) [Compound 176, 3-Methyl-2-oxo-N-(6-((5-(trifluoromethyl)pyridin-2-yl)oxy)chroman-8-yl)-imidazolidine-4-carboxamide], below 50 nM; under `COc1ccc(Oc2ccc(C(F)(F)F)cc2)cc1NC(=O)C1CN(C)C(=O)N1C` (centres unmarked) [Compound 139, N-(2-Methoxy-5-(4-(trifluoromethyl)phenoxy)phenyl)-1,3-dimethyl-2-oxo-imidazolidine-4-carboxamide], below 50 nM. Next, `COc1ccc(Oc2cc(C(F)(F)F)ccn2)cc1NC(=O)[C@@H]1CCC(=O)N1C` [Compound 394, (S)—N-(2-Methoxy-5-((4-(trifluoromethyl)pyridin-2-yl)oxy)phenyl)-1-methyl-5-oxopyrrolidine-2-carboxamide]: 301 to 2000 nM; `COc1ccc(COc2cccc(F)c2)cc1NC(=O)[C@H]1NC(=O)C[C@@H]1C` (racemic) [Compound 6, rac-(trans)-N-(5-((3-Fluorophenoxy)methyl)-2-methoxyphenyl)-3-methyl-5-oxopyrrolidine-2-carboxamide]: 301 to 2000 nM.

On to `CN1C(=O)CCC1C(=O)Nc1cc(Cl)cc(Oc2ccc(C(F)(F)F)cn2)c1` (centres unmarked) [Compound 352, N-(3-Chloro-5-((5-(trifluoromethyl)pyridin-2-yl)oxy)phenyl)-1-methyl-5-oxopyrrolidine-2-carboxamide], for which the concentration for half-maximal inhibition (IC50) is below 50 nM. Next, `C[C@@H]1Cc2cc(Oc3ccc(C(F)(F)F)cn3)cc(NC(=O)[C@H]3CCC(=O)N3C)c2O1` [Compound 173, (2R)-1-Methyl-N-(2-methyl-5-((5-(trifluoromethyl)pyridin-2-yl)oxy)-2,3-di-hydrobenzofuran-7-yl)-5-oxopyrrolidine-2-carboxamide]: 50 to 300 nM; `COc1ccc(Oc2ccc(C(F)(F)F)cc2)cc1NC(=O)C1CCN(C(C)=O)C1` (centres unmarked) [Compound 412, 1-Acetyl-N-(2-methoxy-5-(4-(trifluoromethyl)phenoxy)phenyl)-pyrrolidine-3-carboxamide]: 301 to 2000 nM; `COc1ccc(Oc2ccc(C(F)F)cc2)cc1NC(=O)[C@@H]1CNC(=O)N1C` [Compound 340, (S)—N-(5-(4-(Difluoromethyl)phenoxy)-2-methoxyphenyl)-3-methyl-2-oxo-imidazolidine-4-carboxamide]: below 50 nM. Under `COc1ccc(Oc2ccc(F)cc2F)cc1NC(=O)C1CCC(=O)N1C(C)=O` (centres unmarked) [Compound 44, 1-Acetyl-N-(5-(2,4-difluorophenoxy)-2-methoxyphenyl)-5-oxopyrrolidine-2-carboxamide] stands 301 to 2000 nM; under `COc1ccc(Oc2ccc(Cl)cn2)cc1NC(=O)[C@@H]1CCC(=O)N1C` [Compound 288, (S)—N-(5-((5-Chloropyridin-2-yl)oxy)-2-methoxyphenyl)-1-methyl-5-oxo-pyrrolidine-2-carboxamide], 50 to 300 nM.
